From ChEMBL document CHEMBL3044945, “Synthesis of 1,3,5-trisubstituted pyrazoline nucleus containing compounds and screening for antimicrobial activity” (2012)

How the values were obtained:
Format in all cases: functional
Bacillus pumilus [1] = experiment: Antibacterial activity against Bacillus pumilus MTCC 1456 after 24 to 48 hr by tube dilution method
Micrococcus luteus [2] = experiment: Antibacterial activity against Micrococcus luteus MTCC 1538 after 24 to 48 hr by tube dilution method
Micrococcus luteus [3] = experiment: Antibacterial activity against Micrococcus luteus MTCC 1538 at 1000 ug/ml after 48 hr by cup-plate method; settings: MTCC 1538, 48 h, read-out: DIZ
Penicillium chrysogenum [4] = experiment: Antifungal activity against Penicillium chrysogenum MTCC 161 at 750 ug/ml after 48 hr by cup-plate method; settings: MTCC 161, 48 h, read-out: DIZ
Micrococcus luteus [5] = experiment: Antibacterial activity against Micrococcus luteus MTCC 1538 at 750 ug/ml after 48 hr by cup-plate method; settings: MTCC 1538, 48 h, read-out: DIZ
Aspergillus niger [6] = experiment: Antifungal activity against Aspergillus niger MTCC 2546 at 100 ug/ml after 48 hr by cup-plate method; settings: MTCC 2546, 48 h, read-out: DIZ
Pseudomonas fluorescens [7] = experiment: Antibacterial activity against Pseudomonas fluorescens MTCC 2421 at 1250 ug/ml after 48 hr by cup-plate method; settings: MTCC 2421, 48 h, read-out: DIZ
Penicillium chrysogenum [8] = experiment: Antifungal activity against Penicillium chrysogenum MTCC 161 after 24 to 48 hr by tube dilution method
Penicillium chrysogenum [9] = experiment: Antifungal activity against Penicillium chrysogenum MTCC 161 at 1000 ug/ml after 48 hr by cup-plate method; settings: MTCC 161, 48 h, read-out: DIZ
Pseudomonas aeruginosa [10] = experiment: Antibacterial activity against Pseudomonas aeruginosa MTCC 424 at 250 ug/ml after 48 hr by cup-plate method; settings: MTCC 424, 48 h, read-out: DIZ
Aspergillus niger [11] = experiment: Antifungal activity against Aspergillus niger MTCC 2546 after 24 to 48 hr by tube dilution method
Staphylococcus aureus [12] = experiment: Antibacterial activity against Staphylococcus aureus MTCC 1430 at 750 ug/ml after 48 hr by cup-plate method; settings: MTCC 1430, 48 h, read-out: DIZ
Pseudomonas aeruginosa [13] = experiment: Antibacterial activity against Pseudomonas aeruginosa MTCC 424 at 100 ug/ml after 48 hr by cup-plate method; settings: MTCC 424, 48 h, read-out: DIZ
Pseudomonas fluorescens [14] = experiment: Antibacterial activity against Pseudomonas fluorescens MTCC 2421 after 24 to 48 hr by tube dilution method
Aspergillus niger [15] = experiment: Antifungal activity against Aspergillus niger MTCC 2546 at 250 ug/ml after 48 hr by cup-plate method; settings: MTCC 2546, 48 h, read-out: DIZ
Pseudomonas aeruginosa [16] = experiment: Antibacterial activity against Pseudomonas aeruginosa MTCC 424 at 750 ug/ml after 48 hr by cup-plate method; settings: MTCC 424, 48 h, read-out: DIZ
Pseudomonas aeruginosa [17] = experiment: Antibacterial activity against Pseudomonas aeruginosa MTCC 424 at 1000 ug/ml after 48 hr by cup-plate method; settings: MTCC 424, 48 h, read-out: DIZ
Micrococcus luteus [18] = experiment: Antibacterial activity against Micrococcus luteus MTCC 1538 at 500 ug/ml after 48 hr by cup-plate method; settings: MTCC 1538, 48 h, read-out: DIZ
Bacillus subtilis [19] = experiment: Antibacterial activity against Bacillus subtilis MTCC 441 at 1000 ug/ml after 48 hr by cup-plate method; settings: MTCC 441, 48 h, read-out: DIZ
Bacillus pumilus [20] = experiment: Antibacterial activity against Bacillus pumilus MTCC 1456 at 1000 ug/ml after 48 hr by cup-plate method; settings: MTCC 1456, 48 h, read-out: DIZ
Penicillium chrysogenum [21] = experiment: Antifungal activity against Penicillium chrysogenum MTCC 161 at 1250 ug/ml after 48 hr by cup-plate method; settings: MTCC 161, 48 h, read-out: DIZ
Escherichia coli [22] = experiment: Antibacterial activity against Escherichia coli MTCC 1573 at 500 ug/ml after 48 hr by cup-plate method; settings: MTCC 1573, 48 h, read-out: DIZ
Micrococcus luteus [23] = experiment: Antibacterial activity against Micrococcus luteus MTCC 1538 at 1250 ug/ml after 48 hr by cup-plate method; settings: MTCC 1538, 48 h, read-out: DIZ
Staphylococcus aureus [24] = experiment: Antibacterial activity against Staphylococcus aureus MTCC 1430 at 500 ug/ml after 48 hr by cup-plate method; settings: MTCC 1430, 48 h, read-out: DIZ
Bacillus pumilus [25] = experiment: Antibacterial activity against Bacillus pumilus MTCC 1456 at 100 ug/ml after 48 hr by cup-plate method; settings: MTCC 1456, 48 h, read-out: DIZ
Pseudomonas aeruginosa [26] = experiment: Antibacterial activity against Pseudomonas aeruginosa MTCC 424 after 24 to 48 hr by tube dilution method
Penicillium chrysogenum [27] = experiment: Antifungal activity against Penicillium chrysogenum MTCC 161 at 250 ug/ml after 48 hr by cup-plate method; settings: MTCC 161, 48 h, read-out: DIZ
Pseudomonas fluorescens [28] = experiment: Antibacterial activity against Pseudomonas fluorescens MTCC 2421 at 500 ug/ml after 48 hr by cup-plate method; settings: MTCC 2421, 48 h, read-out: DIZ
Escherichia coli [29] = experiment: Antibacterial activity against Escherichia coli MTCC 1573 after 24 to 48 hr by tube dilution method
Bacillus subtilis [30] = experiment: Antibacterial activity against Bacillus subtilis MTCC 441 at 500 ug/ml after 48 hr by cup-plate method; settings: MTCC 441, 48 h, read-out: DIZ
Bacillus pumilus [31] = experiment: Antibacterial activity against Bacillus pumilus MTCC 1456 at 1250 ug/ml after 48 hr by cup-plate method; settings: MTCC 1456, 48 h, read-out: DIZ
Bacillus pumilus [32] = experiment: Antibacterial activity against Bacillus pumilus MTCC 1456 at 250 ug/ml after 48 hr by cup-plate method; settings: MTCC 1456, 48 h, read-out: DIZ
Staphylococcus aureus [33] = experiment: Antibacterial activity against Staphylococcus aureus MTCC 1430 after 24 to 48 hr by tube dilution method
Pseudomonas fluorescens [34] = experiment: Antibacterial activity against Pseudomonas fluorescens MTCC 2421 at 250 ug/ml after 48 hr by cup-plate method; settings: MTCC 2421, 48 h, read-out: DIZ
Aspergillus niger [35] = experiment: Antifungal activity against Aspergillus niger MTCC 2546 at 1000 ug/ml after 48 hr by cup-plate method; settings: MTCC 2546, 48 h, read-out: DIZ
Escherichia coli [36] = experiment: Antibacterial activity against Escherichia coli MTCC 1573 at 250 ug/ml after 48 hr by cup-plate method; settings: MTCC 1573, 48 h, read-out: DIZ
Escherichia coli [37] = experiment: Antibacterial activity against Escherichia coli MTCC 1573 at 1250 ug/ml after 48 hr by cup-plate method; settings: MTCC 1573, 48 h, read-out: DIZ
Staphylococcus aureus [38] = experiment: Antibacterial activity against Staphylococcus aureus MTCC 1430 at 250 ug/ml after 48 hr by cup-plate method; settings: MTCC 1430, 48 h, read-out: DIZ
Micrococcus luteus [39] = experiment: Antibacterial activity against Micrococcus luteus MTCC 1538 at 250 ug/ml after 48 hr by cup-plate method; settings: MTCC 1538, 48 h, read-out: DIZ
Penicillium chrysogenum [40] = experiment: Antifungal activity against Penicillium chrysogenum MTCC 161 at 100 ug/ml after 48 hr by cup-plate method; settings: MTCC 161, 48 h, read-out: DIZ
Pseudomonas aeruginosa [41] = experiment: Antibacterial activity against Pseudomonas aeruginosa MTCC 424 at 500 ug/ml after 48 hr by cup-plate method; settings: MTCC 424, 48 h, read-out: DIZ
Penicillium chrysogenum [42] = experiment: Antifungal activity against Penicillium chrysogenum MTCC 161 at 500 ug/ml after 48 hr by cup-plate method; settings: MTCC 161, 48 h, read-out: DIZ
Pseudomonas fluorescens [43] = experiment: Antibacterial activity against Pseudomonas fluorescens MTCC 2421 at 1000 ug/ml after 48 hr by cup-plate method; settings: MTCC 2421, 48 h, read-out: DIZ
Aspergillus niger [44] = experiment: Antifungal activity against Aspergillus niger MTCC 2546 at 500 ug/ml after 48 hr by cup-plate method; settings: MTCC 2546, 48 h, read-out: DIZ
Bacillus subtilis [45] = experiment: Antibacterial activity against Bacillus subtilis MTCC 441 at 750 ug/ml after 48 hr by cup-plate method; settings: MTCC 441, 48 h, read-out: DIZ

NC(=S)N1N=C(c2cccc3ccccc23)CC1c1ccc([N+](=O)[O-])cc1 (stereo not given)
17 mm: zone of inhibition at 500 µg/mL (Aspergillus niger [44])
11 mm: zone of inhibition at 250 µg/mL (Pseudomonas aeruginosa [10]) | zone of inhibition at 750 µg/mL (Staphylococcus aureus [12]) | zone of inhibition at 250 µg/mL (Aspergillus niger [15]) | zone of inhibition at 500 µg/mL (Micrococcus luteus [18]) | zone of inhibition at 500 µg/mL (Escherichia coli [22]) | zone of inhibition at 250 µg/mL (Penicillium chrysogenum [27]) | zone of inhibition at 250 µg/mL (Bacillus pumilus [32])
10 mm: zone of inhibition at 100 µg/mL (Aspergillus niger [6]) | zone of inhibition at 100 µg/mL (Pseudomonas aeruginosa [13]) | zone of inhibition at 500 µg/mL (Staphylococcus aureus [24]) | zone of inhibition at 100 µg/mL (Bacillus pumilus [25]) | zone of inhibition at 250 µg/mL (Pseudomonas fluorescens [34]) | zone of inhibition at 100 µg/mL (Penicillium chrysogenum [40])
18 mm: zone of inhibition at 500 µg/mL (Pseudomonas fluorescens [28]) | zone of inhibition at 1250 µg/mL (Escherichia coli [37])
150 µg/mL: MIC (Micrococcus luteus [2]) | MIC (Staphylococcus aureus [33])
14 mm: zone of inhibition at 750 µg/mL (Micrococcus luteus [5])
50 µg/mL: MIC (Pseudomonas aeruginosa [26]) | MIC (Escherichia coli [29])
30 µg/mL: MIC (Bacillus pumilus [1]) | MIC (Penicillium chrysogenum [8]) | MIC (Aspergillus niger [11]) | MIC (Pseudomonas fluorescens [14])
19 mm: zone of inhibition at 750 µg/mL (Penicillium chrysogenum [4]) | zone of inhibition at 1000 µg/mL (Pseudomonas aeruginosa [17]) | zone of inhibition at 1000 µg/mL (Bacillus subtilis [19]) | zone of inhibition at 1000 µg/mL (Bacillus pumilus [20]) | zone of inhibition at 1250 µg/mL (Micrococcus luteus [23])
24 mm: zone of inhibition at 1250 µg/mL (Pseudomonas fluorescens [7]) | zone of inhibition at 1000 µg/mL (Aspergillus niger [35])
16 mm: zone of inhibition at 1000 µg/mL (Micrococcus luteus [3]) | zone of inhibition at 750 µg/mL (Pseudomonas aeruginosa [16]) | zone of inhibition at 500 µg/mL (Penicillium chrysogenum [42]) | zone of inhibition at 750 µg/mL (Bacillus subtilis [45])
12 mm: zone of inhibition at 500 µg/mL (Bacillus subtilis [30]) | zone of inhibition at 500 µg/mL (Pseudomonas aeruginosa [41])
21 mm: zone of inhibition at 1000 µg/mL (Penicillium chrysogenum [9]) | zone of inhibition at 1250 µg/mL (Bacillus pumilus [31])
9 mm: zone of inhibition at 250 µg/mL (Escherichia coli [36]) | zone of inhibition at 250 µg/mL (Staphylococcus aureus [38]) | zone of inhibition at 250 µg/mL (Micrococcus luteus [39])
23 mm: zone of inhibition at 1250 µg/mL (Penicillium chrysogenum [21]) | zone of inhibition at 1000 µg/mL (Pseudomonas fluorescens [43])
